{"source": "paper PMC11001709", "about": "“Anti-toxoplasma activity and DNA-binding of copper(II) and zinc(II) coordination compounds with 5-nitroimidazole-based ligands” (Journal of Biological Inorganic Chemistry, 2023)", "key": {"[1]": {"tested_on": "RH tachyzoites of Toxoplasma gondii", "experiment": "Viability of extracellular tachyzoites, Sytox Green exclusion test", "format": "cell-based", "conditions": "1 h", "procedure": "RH tachyzoites of Toxoplasma gondii were extracted in PBS solution at pH 7.4 from intraperitoneal fluid of infected CD1 mice on the third day of infection and centrifuged for ten minutes at 260g. Purified parasites were used within 4 h after their isolation.\nThe viability of the parasites was determined from staining with Sytox Green® fluorescent dye exclusion test. Purified tachyzoites (1 × 10^6) were incubated for one hour at room temperature with PBS solutions of the coordination compounds or the free ligands at concentrations of 40, 20, 10, 5, and 2.5 µM (0.1% DMSO), in a volume final of 1 mL. After the incubation time, the samples were centrifuged for 10 min at 250g, the medium was removed and 20 µL of Sytox Green® was added after 15 min of incubation for differentiate dead parasites in a Neubauer chamber. The assays were performed in triplicate. The half maximal inhibitory concentration (IC50) was calculated by Boltzmann regression analysis and expressed as mean ± standard error of three replicates. Based on the results the tachyzoites were incubated under the same conditions with the coordination compounds [Cu(onz)2Cl2] and [Cu(onz)2Br2] at their respective IC50 values, Sytox Green® was then added, and they were observed by fluorescence microscopy. Sulfadiazine was used as positive control.\nViability assays were performed against tachyzoites of Toxoplasma gondii. The RH strain was used to evaluate the effect of different concentrations (namely, 2.5, 5, 10, 20 and 40 µM) of the coordination compounds and the free 5-nitroimidazole against the tachyzoites. The evaluation were performed in PBS buffer (pH 7.4) with Sytox Green® exclusion test, which allows differentiating dead from live tachyzoites, since the intact cell membrane of alive ones is not stained."}, "[2]": {"conditions": "intraperitoneal injection; cited from earlier work"}, "[3]": {"experiment": "Distribution coefficient LogD7.4, shake-flask 1-octanol/MOPS buffer", "format": "physicochemical", "conditions": "1-octanol/MOPS buffer, pH 7.4, octanol/water (MOPS buffer 10^–2 M), 25 °C", "procedure": "Solutions between 100 and 10 µM of the free ligands (cenz and onz) and the coordination compounds 3–10 were prepared in a MOPS buffer pH 7.4 as the aqueous phase and in 1-octanol as the organic phase. The absorption at 320 nm and 310 nm was determined for the aqueous and organic phase respectively by electronic spectroscopy (UV–Vis). Through a linear regression (concentration vs. absorption) the molar extinction coefficient of each compound in both phases was determined (Table 3). The lipophilicity was calculated in the 1-octanol/water system from the shake flask method using Eq. 1 [39]:1 […] where, Co is the final concentration in the organic phase and Cw is the final concentration in the aqueous phase (MOPS buffer at 10^–2 M pH 7.4). Both phases were presaturated with 50 µM solutions of the free ligands or 500 µM of each coordination compound and their UV spectrum was recorded. Both phases were combined and kept stirring for 3 h at 25 °C and in the absence of light. Subsequently, the mixture was centrifuged at 400g and the concentration in both phases was determined by UV–Vis spectroscopy using the Beer-Lambert law. The assays were performed in triplicate.\nThe T gondii parasite is an apicomplex organism; it requires a host cell to live, so it is important that the drugs used against the parasite have easy access to the cell. The lipophilicity of a compound is an important physicochemical property to determine its ability to permeate the biological membrane through passive diffusion; which usually is measured from the distribution coefficient logD7.4 = log(Co/Cw), in n-octanol/water. The shake-flask method was used to determine the LogD7.4 values from the molar extinction coefficients of the coordination compounds and the ligands in the two solvents (Table 3)."}, "ct-DNA": {"tested_on": "ct-DNA", "experiment": "Circular dichroism of ct-DNA", "format": "binding, calf", "conditions": "[DNA]b = 50 µM, [complex]/[DNA] 0-2, 1 h 37 °C", "procedure": "For the UV–Vis, fluorescence and circular dichroism assays the concentration of ct-DNA was determined on a Varian Cary 100 Scan spectrophotometer from the absorption at 260 nm and the corresponding molar absorptivity of 6600 M^−1 cm^−1 (nucleobase concentration). The stock solutions of the coordination compounds and the free ligands were prepared in cacodylate/NaCl buffer (1 mM cacodylic acid and 20 mM sodium chloride) at pH 7.25. The final samples contained a DMSO concentration of 0.2%.\nCircular dichroism (CD) spectra were recorded using a JASCO-815 spectropolarimeter, equipped with xenon-arc lamp of 450 W. The sample compartment was air-purged with N2 before use. For the measurements, a quartz cuvette with an optical path of 5 mm was used. A solution of 25 µM (in base pairs) of ct-DNA in cacodylate/NaCl buffer was incubated for 1 h at 37 °C with increasing amounts of coordination compounds (0–50 µM). The CD spectra were recorded at room temperature.\nThe interaction of small molecules with DNA can modify these CD signals depending on the type of binding. Intercalative interactions increase the intensity of the signals, as the result of an increase of the stability of the B conformation, whereas groove binding or covalent interactions tend to decrease the intensity of these signals, which are moreover displaced. The CD spectra for both ligands and their copper(II) and zinc(II) complexes were obtained at constant concentration of ct-DNA, increasing the complex concentration up to two equivalents ([complex]/[DNA] ratios of 0, 0.2, 0.4, 1, 2) with respect to the nucleobases concentration ([DNA]b = 50 µM)."}, "pBR322 plasmid DNA": {"tested_on": "pBR322 plasmid DNA", "experiment": "Agarose gel electrophoresis, DNA cleavage", "format": "biochemical", "conditions": "for %Damage / %Nicked / %Supercoiled: compound 50 (mM in the source)", "procedure": "Electrophoresis assays were performed in 1.5% agarose gel and 1× TBE buffer using the DNA plasmid pBR322. The plasmid (15 µM base pairs) was incubated with 10 and 50 μM concentrations of the coordination compounds for 1 h at 37 °C in presence and absence of ascorbic acid (50 μM) as reducing agent and hydrogen peroxide (500 µM) as ROS generator in a final volume of 20 μL. The DNA-cleaving compound [Cu(phen)2(H2O)](NO3)2 was used as reference. The samples were loaded into the gel with 4 μL of a loading buffer (30% glycerol, 5 mM xylene cyanol), and electrophoresis was performed in 1× TBE at 100 V for 1 h in a Bio-Rad horizontal tank. Subsequently, the gel was stained with SYBR™ Safe overnight and images were acquired with a Gel Doc EZ Imager instrument (Bio-Rad).\nDistinct forms of pBR322 plasmid DNA are commonly observed by gel electrophoresis due to the conformational changes that present distinct electrophoretic mobility: (1) supercoiled DNA (Form I) that migrates faster on the gel, (2) circular nicked (Form II), obtained from a one-strand scission, has a slower migration through the gel and (3) linear form (Form III) is generated when both strands are cleaved and migrates between forms I and II [54]. The interaction of the free ligands and their copper(II) and zinc(II) coordination compounds with pBR322 was investigated in presence of H2Asc (50 μM) as reducing agent and H2O2 (500 μM) as ROS generator. Solutions of 10 and 50 µM of the coordination compounds were incubated with the DNA at 37 °C for 1 h."}, "Entamoeba histolytica": {"tested_on": "Entamoeba histolytica", "conditions": "cited from earlier work"}, "[4]": {"tested_on": "Euryhaliotrema perezponcei", "set-up": "method as in doi:10.1016/j.poly.2013.09.030, PMID 28917638", "conditions": "in vitro and in vivo assays; cited from earlier work"}}}
{"compound": "Nc1ccc(S(=O)(=O)Nc2ncccn2)cc1", "note": "[sulfadiazine, reference compound]", "values": [{"measurement": "IC50", "setting": "[1]; Toxoplasma gondii, PBS pH 7.4, mean ± standard error of three replicates, read-out: IC50", "result": "> 1600", "unit": "µM"}, {"measurement": "LD50", "setting": "[2]", "result": 180, "unit": "mg/kg"}]}
{"compound": "Cc1ncc([N+](=O)[O-])n1CC(O)CCl", "note": "(centres unmarked) [onz, 1-(3-chloro-2-hydroxypropyl)-2-methyl-5-nitroimidazole, reference compound]", "values": [{"measurement": "activity against T. gondii", "setting": "[1]; 2.5-40 µM, PBS", "result": "did not show activity"}, {"measurement": "logD at 3 h", "setting": "[3]", "result": 0.64}, {"measurement": "effect on CD spectrum of ct-DNA (bands at 275 and 245 nm)", "setting": "ct-DNA", "result": "did not affect the DNA structure"}, {"measurement": "%Damage", "setting": "pBR322 plasmid DNA; + H2Asc", "result": 11.80, "unit": "%"}, {"measurement": "%Nicked", "setting": "pBR322 plasmid DNA; + H2Asc", "result": 5.60, "unit": "%"}, {"measurement": "%Supercoiled", "setting": "pBR322 plasmid DNA; + H2Asc", "result": 88.20, "unit": "%"}, {"measurement": "%Damage", "setting": "pBR322 plasmid DNA; + H2Asc + H2O2", "result": 8.80, "unit": "%"}, {"measurement": "%Nicked", "setting": "pBR322 plasmid DNA; + H2Asc + H2O2", "result": 4.30, "unit": "%"}, {"measurement": "%Supercoiled", "setting": "pBR322 plasmid DNA; + H2Asc + H2O2", "result": 91.20, "unit": "%"}, {"measurement": "%Damage", "setting": "pBR322 plasmid DNA; + H2O2", "result": 10.70, "unit": "%"}, {"measurement": "%Nicked", "setting": "pBR322 plasmid DNA; + H2O2", "result": 8.90, "unit": "%"}, {"measurement": "%Supercoiled", "setting": "pBR322 plasmid DNA; + H2O2", "result": 89.30, "unit": "%"}, {"measurement": "%Damage", "setting": "pBR322 plasmid DNA; no additive", "result": 9.80, "unit": "%"}, {"measurement": "%Nicked", "setting": "pBR322 plasmid DNA; no additive", "result": 7.60, "unit": "%"}, {"measurement": "%Supercoiled", "setting": "pBR322 plasmid DNA; no additive", "result": 90.20, "unit": "%"}, {"measurement": "DNA cleavage (in words)", "setting": "pBR322 plasmid DNA; with and without H2Asc / H2O2", "result": "did not provoke any significant DNA cleavage"}, {"measurement": "MIC", "setting": "Entamoeba histolytica", "result": 12.5, "unit": "µM"}]}
{"compound": "CCS(=O)(=O)CCn1c([N+](=O)[O-])cnc1C.CCS(=O)(=O)CCn1c([N+](=O)[O-])cnc1C.[Br][Cu][Br]", "note": "[[Cu(tnz)2Br2]]", "values": [{"measurement": "parasite mortality percentage", "setting": "[4]", "result": 100, "unit": "%"}]}
